Earlier results on one molecule are cited in patent US6713504B2, “Antifungal molecule 2-(3,4-dimethyl-2,5-dihydro-1H-pyrrol-2-yl)-1-methylethyl pentanoate” (Council of Scientific & Industrial Research, priority 2002, dated 2004).

The conditions of this data set: amphotericin B and its liposomal derivatives; reported by Zager 2000; cited from earlier work.

`C[C@@H]1[C@H](O)[C@@H](C)/C=C/C=C/C=C/C=C/C=C/C=C/C=C/[C@H](O[C@@H]2O[C@H](C)[C@@H](O)[C@H](N)[C@@H]2O)C[C@@H]2O[C@](O)(C[C@@H](O)C[C@@H](O)[C@H](O)CC[C@@H](O)C[C@@H](O)CC(=O)O[C@H]1C)C[C@H](O)[C@H]2C(=O)O` [amphotericin B]: the CT50 is 4.0 to 64.0 µg/mL.
